Values quoted from earlier work in patent US9387185B2, “N-ω-hydroxy-L-arginine derivatives for the treatment of diseases” (Christian-Albrechts-Universität Zu Kiel, priority 2009, dated 2016).
pKi: −log10 of the molar value.

Key:
[1] = test system: rats; conditions: i.v.
[2] = biological target: T1, arginase I (Homo sapiens, UniProt P05089)
T1 sequence (P05089 1-322): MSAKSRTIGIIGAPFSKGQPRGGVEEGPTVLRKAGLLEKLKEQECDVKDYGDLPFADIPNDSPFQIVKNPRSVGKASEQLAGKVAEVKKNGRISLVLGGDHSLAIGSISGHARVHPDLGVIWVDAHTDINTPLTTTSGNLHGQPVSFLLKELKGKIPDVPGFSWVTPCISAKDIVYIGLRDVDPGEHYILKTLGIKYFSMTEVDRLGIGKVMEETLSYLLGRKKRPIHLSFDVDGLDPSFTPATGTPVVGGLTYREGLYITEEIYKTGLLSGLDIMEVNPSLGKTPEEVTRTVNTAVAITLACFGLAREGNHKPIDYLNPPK

N=C(NO)NCCC[C@H](N)C(=O)O [NOHA, N^ω-hydroxy-L-arginine]
effects for treating the erectile dysfunction, endothelial dysfunction and hypertension [1]: desired effects for treating the erectile dysfunction, endothelial dysfunction and hypertension could already be demonstrated | pKi [2]: 4.38 to 4.52
